Results as given in patent US4399283A, “Pharmaceutical salts of 4'-(9-acridinylamino)-methanesulfon-m-anisidide” (Warner Lambert Company, priority 1981, dated 1983).

What was measured:
[1] = assay type: physicochemical; conditions: 10 mg/ml, after storing at 5 °C
From the text: The salts of th present invention allow one to prepare solutions of m-AMSA without the aid of dimethylacetamide. Depending upon the salt, concentration and temperature,standing may result in certain of the solutions of salts forming gels. However, a salt need only remain in solution for a period long enough for it to be administered to a patient.

mice = conditions: literature (Cain et al.); cited from earlier work

Structure (SMILES)	Return of gelled solution to fluid state by warming to room temperature and shaking [1]	Activity in treating mammals in studies using mice (mice)
COc1cc(NS(C)(=O)=O)ccc1Nc1c2ccccc2nc2ccccc12 [gluconate, 4'-(9-acridinylamino)methanesulfon-m-anisidide D-gluconate]	this could not be achieved	
COc1cc(NS(C)(=O)=O)ccc1Nc1c2ccccc2nc2ccccc12 [m-AMSA, 4'-(9-acridinylamino)-methanesulfon-m-anisidide]		high degree of activity
